“And” between values parts separate entries of the source, which are not always exact repeats. Identical values can stand only once.
Columns and labels:
Design in all cases: scale not given: the % may be the effect or the level left
[1] = molecular target: Cyclin-dependent kinase 11A (Homo sapiens) (UniProt Q9UQ88); assay: Inhibition of human CDC2L2 assessed as percent of control at 2000 nM by KINOMEscan assay relative to control
[2] = test system: Receptor-type tyrosine-protein kinase FLT3 (Homo sapiens), P36888 [D835Y]; assay: Inhibition of human FLT3 D835Y mutant assessed as percent of control at 2000 nM by KINOMEscan assay relative to control
[3] = test system: Fibroblast growth factor receptor 3 (Homo sapiens), P22607 [G697C]; assay: Inhibition of human FGFR3 G697C mutant assessed as percent of control at 2000 nM by KINOMEscan assay relative to control
[4] = molecular target: Epithelial discoidin domain-containing receptor 1 (Homo sapiens) (UniProt Q08345); assay: Inhibition of human DDR1 assessed as percent of control at 2000 nM by KINOMEscan assay relative to control
[5] = test system: Tyrosine-protein kinase ABL1 (Homo sapiens), P00519 [F317L]; assay: Inhibition of non-phosphorylated human ABL1 F317L mutant assessed as percent of control at 2000 nM by KINOMEscan assay relative to control
[6] = molecular target: Mitogen-activated protein kinase kinase kinase 20 (Homo sapiens) (UniProt Q9NYL2); assay: Inhibition of human ZAK assessed as percent of control at 2000 nM by KINOMEscan assay relative to control
[7] = molecular target: Activin receptor type-1B (Homo sapiens) (UniProt P36896); assay: Inhibition of human ACVR1B assessed as percent of control at 2000 nM by KINOMEscan assay relative to control
[8] = molecular target: Phosphatidylinositol 4-phosphate 5-kinase type-1 alpha (Homo sapiens) (UniProt Q99755); assay: Inhibition of human PIP5K1A assessed as percent of control at 2000 nM by KINOMEscan assay relative to control
[9] = molecular target: Cyclin-dependent kinase-like 5 (Homo sapiens) (UniProt O76039); assay: Inhibition of human CDKL5 assessed as percent of control at 2000 nM by KINOMEscan assay relative to control
[10] = test system: eIF-2-alpha kinase GCN2 (Homo sapiens), Q9P2K8 [S808G]; assay: Inhibition of human GCN2 S808G mutant kinase domain 2 assessed as percent of control at 2000 nM by KINOMEscan assay relative to control
[11] = molecular target: Cyclin-dependent kinase 5 (Homo sapiens) (UniProt Q00535); assay: Inhibition of human CDK5 assessed as percent of control at 2000 nM by KINOMEscan assay relative to control
[12] = test system: Tyrosine-protein kinase ABL1 (Homo sapiens), P00519 [E255K]; assay: Inhibition of phosphorylated human ABL1 E255K mutant assessed as percent of control at 2000 nM by KINOMEscan assay relative to control
[13] = molecular target: Non-receptor tyrosine-protein kinase TNK1 (Homo sapiens) (UniProt Q13470); assay: Inhibition of human TNK1 assessed as percent of control at 2000 nM by KINOMEscan assay relative to control
[14] = molecular target: Serine/threonine-protein kinase Nek2 (Homo sapiens) (UniProt P51955); assay: Inhibition of human NEK2 assessed as percent of control at 2000 nM by KINOMEscan assay relative to control
[15] = molecular target: Mitogen-activated protein kinase kinase kinase 15 (Homo sapiens) (UniProt Q6ZN16); assay: Inhibition of human MAP3K15 assessed as percent of control at 2000 nM by KINOMEscan assay relative to control
[16] = molecular target: Serine/threonine-protein kinase 25 (Homo sapiens) (UniProt O00506); assay: Inhibition of human YSK1 assessed as percent of control at 2000 nM by KINOMEscan assay relative to control
[17] = test system: Phosphatidylinositol 4,5-bisphosphate 3-kinase catalytic subunit alpha isoform (Homo sapiens), P42336 [E545A]; assay: Inhibition of human PIK3CA E545A mutant assessed as percent of control at 2000 nM by KINOMEscan assay relative to control
[18] = molecular target: Platelet-derived growth factor receptor beta (Homo sapiens) (UniProt P09619); assay: Inhibition of human PDGFRB assessed as percent of control at 2000 nM by KINOMEscan assay relative to control
[19] = molecular target: BDNF/NT-3 growth factors receptor (Homo sapiens) (UniProt Q16620); assay: Inhibition of human TRKB assessed as percent of control at 2000 nM by KINOMEscan assay relative to control
[20] = molecular target: Tyrosine-protein kinase ABL1 (Homo sapiens) (UniProt P00519); assay: Inhibition of non-phosphorylated human ABL1 assessed as percent of control at 2000 nM by KINOMEscan assay relative to control
[21] = molecular target: Ribosomal protein S6 kinase alpha-2 (Homo sapiens) (UniProt Q15349); assay: Inhibition of human N-terminal RSK3 kinase domain 1 assessed as percent of control at 2000 nM by KINOMEscan assay relative to control
[22] = molecular target: Phosphatidylinositol 4,5-bisphosphate 3-kinase catalytic subunit alpha isoform (Homo sapiens) (UniProt P42336); assay: Inhibition of human PIK3CA assessed as percent of control at 2000 nM by KINOMEscan assay relative to control
[23] = molecular target: Dual specificity protein kinase CLK1 (Homo sapiens) (UniProt P49759); assay: Inhibition of human CLK1 assessed as percent of control at 2000 nM by KINOMEscan assay relative to control
[24] = molecular target: Serine/threonine-protein kinase Nek7 (Homo sapiens) (UniProt Q8TDX7); assay: Inhibition of human NEK7 assessed as percent of control at 2000 nM by KINOMEscan assay relative to control
[25] = molecular target: Phosphatidylinositol 3-kinase C2 domain-containing subunit gamma (Homo sapiens) (UniProt O75747); assay: Inhibition of human PIK3C2G assessed as percent of control at 2000 nM by KINOMEscan assay relative to control
[26] = molecular target: Cyclin-dependent kinase 8 (Homo sapiens) (UniProt P49336); assay: Inhibition of human CDK8 assessed as percent of control at 2000 nM by KINOMEscan assay relative to control; settings: INHIBITOR
[27] = molecular target: Serine/threonine-protein kinase N1 (Homo sapiens) (UniProt Q16512); assay: Inhibition of human PKN1 assessed as percent of control at 2000 nM by KINOMEscan assay relative to control
[28] = molecular target: Ephrin type-A receptor 8 (Homo sapiens) (UniProt P29322); assay: Inhibition of human EPHA8 assessed as percent of control at 2000 nM by KINOMEscan assay relative to control
[29] = molecular target: Serine/threonine-protein kinase RIO1 (Homo sapiens) (UniProt Q9BRS2); assay: Inhibition of human RIOK1 assessed as percent of control at 2000 nM by KINOMEscan assay relative to control
[30] = molecular target: Serine/threonine-protein kinase Chk1 (Homo sapiens) (UniProt O14757); assay: Inhibition of human CHEK1 assessed as percent of control at 2000 nM by KINOMEscan assay relative to control
Serine/threonine-protein kinase Chk1 (Homo sapiens), sequence (O14757 whole entry): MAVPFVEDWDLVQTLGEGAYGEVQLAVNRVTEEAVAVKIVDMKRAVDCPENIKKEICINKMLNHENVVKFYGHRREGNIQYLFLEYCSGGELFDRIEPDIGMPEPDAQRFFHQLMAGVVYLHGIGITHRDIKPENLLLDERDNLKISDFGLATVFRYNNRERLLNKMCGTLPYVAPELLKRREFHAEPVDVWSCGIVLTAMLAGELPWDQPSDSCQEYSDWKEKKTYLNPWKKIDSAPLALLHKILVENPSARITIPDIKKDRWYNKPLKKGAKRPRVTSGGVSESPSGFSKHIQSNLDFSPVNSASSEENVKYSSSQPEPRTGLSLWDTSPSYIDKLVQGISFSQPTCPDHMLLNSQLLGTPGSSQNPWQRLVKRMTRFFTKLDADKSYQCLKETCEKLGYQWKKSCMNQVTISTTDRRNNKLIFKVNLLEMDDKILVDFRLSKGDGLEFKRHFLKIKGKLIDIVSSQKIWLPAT

Platelet-derived growth factor receptor beta (Homo sapiens), sequence (P09619 whole entry): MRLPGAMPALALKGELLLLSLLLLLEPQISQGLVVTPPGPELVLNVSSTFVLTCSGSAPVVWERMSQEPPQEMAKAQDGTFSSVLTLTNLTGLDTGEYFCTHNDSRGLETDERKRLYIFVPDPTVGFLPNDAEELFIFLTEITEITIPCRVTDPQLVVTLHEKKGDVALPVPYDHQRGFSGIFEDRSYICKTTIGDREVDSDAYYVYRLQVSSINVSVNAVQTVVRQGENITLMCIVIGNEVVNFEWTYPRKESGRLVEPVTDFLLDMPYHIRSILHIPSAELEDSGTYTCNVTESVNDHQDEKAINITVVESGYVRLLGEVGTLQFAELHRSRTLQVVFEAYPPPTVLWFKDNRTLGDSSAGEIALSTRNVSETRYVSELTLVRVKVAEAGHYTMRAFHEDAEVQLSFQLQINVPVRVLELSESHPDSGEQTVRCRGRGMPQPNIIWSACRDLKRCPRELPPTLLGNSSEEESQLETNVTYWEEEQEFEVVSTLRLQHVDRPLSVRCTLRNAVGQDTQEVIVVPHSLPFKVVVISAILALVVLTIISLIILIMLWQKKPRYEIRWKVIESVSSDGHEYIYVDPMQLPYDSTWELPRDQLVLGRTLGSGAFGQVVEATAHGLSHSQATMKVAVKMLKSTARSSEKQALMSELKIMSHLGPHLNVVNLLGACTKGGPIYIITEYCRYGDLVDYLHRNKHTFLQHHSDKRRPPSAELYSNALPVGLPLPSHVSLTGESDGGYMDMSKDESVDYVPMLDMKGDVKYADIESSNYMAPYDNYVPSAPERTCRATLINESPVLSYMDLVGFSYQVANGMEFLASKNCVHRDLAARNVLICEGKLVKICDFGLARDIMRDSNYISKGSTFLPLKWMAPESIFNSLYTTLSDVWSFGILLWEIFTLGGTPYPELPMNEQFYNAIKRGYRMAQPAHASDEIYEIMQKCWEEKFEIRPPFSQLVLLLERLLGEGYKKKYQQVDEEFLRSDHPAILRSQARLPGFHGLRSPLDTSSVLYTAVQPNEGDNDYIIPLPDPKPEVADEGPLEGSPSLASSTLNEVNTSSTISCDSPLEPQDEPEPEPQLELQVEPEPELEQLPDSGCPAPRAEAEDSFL
Phosphatidylinositol 3-kinase C2 domain-containing subunit gamma (Homo sapiens), sequence (O75747 whole entry, the tested form may be a part): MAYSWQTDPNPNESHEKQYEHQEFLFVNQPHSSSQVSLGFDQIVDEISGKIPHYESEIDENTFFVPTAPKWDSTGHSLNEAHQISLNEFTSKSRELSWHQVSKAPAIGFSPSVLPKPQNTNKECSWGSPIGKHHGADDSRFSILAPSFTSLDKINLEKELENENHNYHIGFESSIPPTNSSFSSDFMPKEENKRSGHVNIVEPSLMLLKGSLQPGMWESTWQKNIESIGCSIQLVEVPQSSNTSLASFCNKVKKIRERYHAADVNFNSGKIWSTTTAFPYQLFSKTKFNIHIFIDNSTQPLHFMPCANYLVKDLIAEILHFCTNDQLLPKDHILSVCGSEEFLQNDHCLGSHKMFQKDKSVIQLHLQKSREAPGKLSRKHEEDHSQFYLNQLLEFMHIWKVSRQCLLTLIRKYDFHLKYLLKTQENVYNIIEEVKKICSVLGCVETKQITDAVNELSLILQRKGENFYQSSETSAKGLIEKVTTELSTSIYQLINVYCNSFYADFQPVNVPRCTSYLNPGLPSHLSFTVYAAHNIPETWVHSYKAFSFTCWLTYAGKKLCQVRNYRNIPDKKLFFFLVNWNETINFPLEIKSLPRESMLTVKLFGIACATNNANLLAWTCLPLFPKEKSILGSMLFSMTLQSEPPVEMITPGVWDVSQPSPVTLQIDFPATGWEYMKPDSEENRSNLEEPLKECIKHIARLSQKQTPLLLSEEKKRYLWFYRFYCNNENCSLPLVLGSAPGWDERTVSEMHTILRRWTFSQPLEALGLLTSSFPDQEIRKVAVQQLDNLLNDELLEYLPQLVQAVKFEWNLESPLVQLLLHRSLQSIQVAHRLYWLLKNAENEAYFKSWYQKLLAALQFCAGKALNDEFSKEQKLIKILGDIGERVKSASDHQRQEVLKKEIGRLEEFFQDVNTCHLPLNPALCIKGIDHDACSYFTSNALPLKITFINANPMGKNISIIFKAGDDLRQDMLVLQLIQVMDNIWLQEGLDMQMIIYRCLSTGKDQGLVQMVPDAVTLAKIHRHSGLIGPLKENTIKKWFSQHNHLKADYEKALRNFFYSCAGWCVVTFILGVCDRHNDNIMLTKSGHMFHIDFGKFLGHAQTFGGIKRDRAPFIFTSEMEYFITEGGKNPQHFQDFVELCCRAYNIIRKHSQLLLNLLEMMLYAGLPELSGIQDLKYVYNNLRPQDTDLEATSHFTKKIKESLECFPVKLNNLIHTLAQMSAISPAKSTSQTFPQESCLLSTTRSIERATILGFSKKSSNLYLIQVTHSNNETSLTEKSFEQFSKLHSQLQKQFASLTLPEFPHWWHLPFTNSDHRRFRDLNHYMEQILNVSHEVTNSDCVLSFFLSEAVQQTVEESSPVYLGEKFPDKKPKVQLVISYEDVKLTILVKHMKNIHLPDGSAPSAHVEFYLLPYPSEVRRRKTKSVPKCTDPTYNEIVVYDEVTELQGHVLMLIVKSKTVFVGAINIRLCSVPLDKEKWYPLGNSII
Fibroblast growth factor receptor 3 (Homo sapiens), P22607 [G697C], sequence (P22607 whole entry G697C, the tested form may be a part): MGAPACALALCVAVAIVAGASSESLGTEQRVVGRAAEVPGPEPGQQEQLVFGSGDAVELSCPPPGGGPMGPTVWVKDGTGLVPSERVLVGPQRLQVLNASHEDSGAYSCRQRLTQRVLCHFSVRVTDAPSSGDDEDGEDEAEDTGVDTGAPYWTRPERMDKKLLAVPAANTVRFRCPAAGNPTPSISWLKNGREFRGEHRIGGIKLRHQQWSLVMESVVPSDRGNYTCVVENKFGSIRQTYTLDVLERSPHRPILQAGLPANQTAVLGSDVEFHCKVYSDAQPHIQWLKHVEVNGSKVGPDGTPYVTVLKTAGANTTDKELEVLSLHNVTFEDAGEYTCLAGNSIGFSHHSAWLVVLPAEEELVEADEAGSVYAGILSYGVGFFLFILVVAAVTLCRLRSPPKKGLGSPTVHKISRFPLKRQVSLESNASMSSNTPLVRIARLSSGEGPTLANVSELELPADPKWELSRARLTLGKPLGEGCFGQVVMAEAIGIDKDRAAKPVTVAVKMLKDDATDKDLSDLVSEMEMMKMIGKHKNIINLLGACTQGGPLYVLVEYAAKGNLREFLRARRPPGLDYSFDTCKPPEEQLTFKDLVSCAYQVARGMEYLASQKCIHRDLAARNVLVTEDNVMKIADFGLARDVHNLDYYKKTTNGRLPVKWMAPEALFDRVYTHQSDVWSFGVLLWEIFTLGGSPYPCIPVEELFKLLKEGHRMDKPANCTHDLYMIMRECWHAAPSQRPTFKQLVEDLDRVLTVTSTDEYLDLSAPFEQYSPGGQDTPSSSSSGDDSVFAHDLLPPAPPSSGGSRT
Serine/threonine-protein kinase 25 (Homo sapiens), sequence (O00506 whole entry, looked up, canonical isoform): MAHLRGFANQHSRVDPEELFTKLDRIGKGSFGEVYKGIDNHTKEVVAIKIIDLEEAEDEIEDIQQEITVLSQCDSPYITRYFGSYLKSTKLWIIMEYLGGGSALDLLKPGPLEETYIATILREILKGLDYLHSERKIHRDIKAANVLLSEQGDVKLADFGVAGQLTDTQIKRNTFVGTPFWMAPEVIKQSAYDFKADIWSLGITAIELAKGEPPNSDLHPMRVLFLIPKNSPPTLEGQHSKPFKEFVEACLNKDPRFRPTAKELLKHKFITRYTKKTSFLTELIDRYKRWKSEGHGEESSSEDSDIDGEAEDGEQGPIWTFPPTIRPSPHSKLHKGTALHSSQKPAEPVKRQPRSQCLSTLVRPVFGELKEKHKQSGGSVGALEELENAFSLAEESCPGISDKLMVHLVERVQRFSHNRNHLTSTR
Cyclin-dependent kinase 11A (Homo sapiens), sequence (Q9UQ88 whole entry): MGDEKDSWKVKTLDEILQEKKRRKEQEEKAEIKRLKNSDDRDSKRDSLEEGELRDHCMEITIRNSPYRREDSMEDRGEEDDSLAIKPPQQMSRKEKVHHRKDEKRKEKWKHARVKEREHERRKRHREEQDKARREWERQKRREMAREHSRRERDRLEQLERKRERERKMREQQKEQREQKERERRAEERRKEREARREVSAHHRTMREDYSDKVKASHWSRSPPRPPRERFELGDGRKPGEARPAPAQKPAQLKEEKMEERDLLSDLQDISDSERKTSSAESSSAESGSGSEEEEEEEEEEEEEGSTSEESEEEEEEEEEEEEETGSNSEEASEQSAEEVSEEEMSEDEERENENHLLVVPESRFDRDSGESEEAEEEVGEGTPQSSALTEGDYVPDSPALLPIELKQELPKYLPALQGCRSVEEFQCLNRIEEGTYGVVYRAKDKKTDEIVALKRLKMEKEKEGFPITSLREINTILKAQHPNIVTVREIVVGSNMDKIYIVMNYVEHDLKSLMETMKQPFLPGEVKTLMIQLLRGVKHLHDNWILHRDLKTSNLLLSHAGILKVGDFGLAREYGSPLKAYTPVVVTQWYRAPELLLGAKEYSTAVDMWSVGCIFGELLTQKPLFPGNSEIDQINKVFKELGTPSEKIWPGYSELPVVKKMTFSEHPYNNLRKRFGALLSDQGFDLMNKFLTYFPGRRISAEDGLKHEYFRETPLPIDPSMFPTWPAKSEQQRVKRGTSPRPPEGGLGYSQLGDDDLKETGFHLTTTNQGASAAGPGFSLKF

Compound: CN(C)C(=O)c1ccc(N2CCCN(c3ccnc4sc(C(N)=O)c(N)c34)CC2)cc1
- Activity [1]: 100%
- Activity [2]: 100%
- Activity ([2]; INHIBITOR): 46%
- Activity [3]: 95% and 100%
- Activity [4]: 82% and 90%
- Activity [5]: 99% and 100%
- Activity [6]: 94% and 100%
- Activity [7]: 100% and 99%
- Activity [8]: 100%
- Activity [9]: 100% and 84%
- Activity [10]: 73% and 88%
- Activity [11]: 84% and 94%
- Activity [12]: 100% and 82%
- Activity [13]: 100%
- Activity [14]: 95%
- Activity [15]: 97% and 92%
- Activity [16]: 76% and 98%
- Activity [17]: 100% and 92%
- Activity [18]: 100% and 93%
- Activity [19]: 88% and 78%
- Activity [20]: 95% and 78%
- Activity [21]: 99% and 77%
- Activity [22]: 100% and 79%
- Activity [23]: 88% and 68%
- Activity [24]: 100% and 86%
- Activity [25]: 94% and 82%
- Activity [26]: 2.6% and 0.25%
- Activity [27]: 96% and 100%
- Activity [28]: 94% and 83%
- Activity [29]: 100%
- Activity [30]: 94% and 100%
